From paper PMC10447463, “Data-mining unveils structure–property–activity correlation of viral infectivity enhancing self-assembling peptides” (Nature Communications, 2023)

Assays:
[1] = Zeta-potential measurement; type: physicochemical; settings: for Zeta pot. / mV: 1 mg/mL in PBS pH 7.4 from 10 mg/mL DMSO stock, 1 d RT, 60 µL diluted in 600 µL 1 mM KCl, Zetasizer Nano ZS, Smoluchowski, mean of triplicate; for Zeta-Potential / mV: mean, Figure 7B
Method in brief: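 Readout: zeta potential (mV) derived by Smoluchowski from measured electrophoretic mobility. Preformed aggregates (1 mg/mL peptide, PBS pH 7.4, RT for 1 d) were diluted into dilute KCl electrolyte (1 mM) shortly before analysis.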

[2] = Turbidity, derived count rate of scattered light; type: physicochemical; settings: log10 of derived count rate of scattered light, Figure 7B
[3] = Turbidity, derived count rate of scattered light; type: physicochemical; settings: for Count Rate / kcps: derived count rate of scattered light at 633 nm, 173°, from zeta-potential measurement, 0.1 mg/mL in 1 mM KCl after 1 d at 1 mg/mL in PBS, turbidity / microscopic aggregation, mean of triplicate
Method in brief: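 Samples: 1 mg/mL in PBS pH 7.4 (from DMSO), 1 d at RT, then diluted in 1 mM KCl immediately before measurement. Triplicates, two independent runs averaged.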

[4] = type: physicochemical; parameters: key to Fibril / Fibril Formation / TEM 2cat / Fibril: 1 = fibrils present; 0 non-fibrillar structures; settings: for Fibril / Fibril Formation: TEM, 1 mg/mL, uranyl acetate stain, qualitative

Substance | Zeta pot. / mV [1] [mV] | Zeta-Potential / mV [1] [mV] | Log10 Count Rate [2] | Count Rate / kcps [3] [kcps] | Fibril / Fibril Formation [4] | Zeta Pot. / mV [1] [mV] | Zeta category ( +1 = if > 4 mV;-1 = if < -4 mV; 0 = -4mV to 4 mV) [1] | Zeta Count Rate Category ([3]; category 1 / 0, no key given) | Zeta Count Rate / kcps ([3]; derived count rate of scattered light) [kcps] | TEM: 1= fibrils, 0= aggregates (micelle), 0.5 = aggregates and fibrils, -1 = nothing obersved, STD prep ([4]; STD prep)
VQIVYK [reference compound] | -2.7 | -2.66 | 1.414 | 26 | 0 |  |  |  |  | 
VLYVGSKT [reference compound] | -9.1 | -9.07 | 1.386 | 24 | 0 |  |  |  |  | 
NSGAITIG-NH2 [reference compound] | -8.4 | -8.45 | 1.294 | 20 | 0 |  |  |  |  | 
RIRIQIC [PS07] |  |  |  |  |  | 16 | 1 (+1 = if > 4 mV) | 1 | 191.1 | 1
GAITIG-NH2 [reference compound] | -5.4 | -5.36 | 1.474 | 30 | 0 |  |  |  |  | 
RCELARTLKR [reference compound] | -0.9 | -0.85 | 1.893 | 78 | 0 |  |  |  |  | 
IIKIIK [reference compound] | -7.0 | -7 | 0.6128 | 4 | 0 |  |  |  |  | 
GQTVTK [reference compound] | -5.3 | -5.26 | 1.536 | 34 | 0 |  |  |  |  | 
DFNKF [reference compound] | -11.8 | -11.77 | 3.027 | 1065 | 1 |  |  |  |  | 
GNNQQNY [reference compound] | -6.6 | -6.62 | 1.572 | 37 | 0 |  |  |  |  | 
